Measured values as given in the NIST ThermoML archive (doi:10.1016/j.jct.2004.11.001).

Conditions: Liquid; for speed of sound: non intrusive technique with two piezoelectric transducers based on the time of flight

[2H]C([2H])([2H])C(=O)C([2H])([2H])[2H] [(D6)-2-propanone]
Conditions | mass density [kg/m3] | speed of sound [m/s]
313.21 K, 59100 kPa | 906.07 | –
318.11 K, 100 kPa | 842.15 | –
318.11 K, 5000 kPa | 848.68 | –
318.11 K, 9920 kPa | 854.81 | –
318.11 K, 14840 kPa | 860.56 | –
318.11 K, 19760 kPa | 865.99 | –
318.11 K, 24670 kPa | 871.14 | –
318.11 K, 29590 kPa | 876.06 | –
318.11 K, 34510 kPa | 880.71 | –
318.11 K, 39430 kPa | 885.18 | –
318.11 K, 44340 kPa | 889.44 | –
318.11 K, 49260 kPa | 893.55 | –
318.11 K, 54180 kPa | 897.49 | –
318.11 K, 59100 kPa | 901.28 | –
318.22 K, 100 kPa | – | 991.2
318.22 K, 4980 kPa | – | 1022.9
318.22 K, 10070 kPa | – | 1053.8
318.22 K, 19990 kPa | – | 1109.8
318.22 K, 30040 kPa | – | 1161.1
318.22 K, 40070 kPa | – | 1207.9
318.22 K, 50060 kPa | – | 1250.3
318.22 K, 60010 kPa | – | 1289.3
318.22 K, 70120 kPa | – | 1326.3
318.22 K, 80030 kPa | – | 1360.3
318.22 K, 90090 kPa | – | 1393
318.22 K, 100300 kPa | – | 1424.8
318.22 K, 110120 kPa | – | 1453.2
318.22 K, 120030 kPa | – | 1481
318.22 K, 129970 kPa | – | 1507.9
318.22 K, 140110 kPa | – | 1534.2
318.22 K, 150060 kPa | – | 1558.7
318.22 K, 160060 kPa | – | 1582.6
323.12 K, 100 kPa | 835.37 | –
323.12 K, 5000 kPa | 842.13 | –
323.12 K, 9920 kPa | 848.49 | –
323.12 K, 14840 kPa | 854.44 | –
323.12 K, 19760 kPa | 860.07 | –
323.12 K, 24670 kPa | 865.35 | –
323.12 K, 29590 kPa | 870.38 | –
323.12 K, 34510 kPa | 875.18 | –
323.12 K, 39430 kPa | 879.78 | –
323.12 K, 44340 kPa | 884.16 | –
323.12 K, 49260 kPa | 888.38 | –
323.12 K, 54180 kPa | 892.45 | –
323.12 K, 59100 kPa | 896.36 | –
328 K, 100 kPa | 828.68 | –
328 K, 5000 kPa | 835.72 | –
328 K, 9920 kPa | 842.33 | –
328 K, 14840 kPa | 848.48 | –
328 K, 19760 kPa | 854.24 | –
328 K, 24670 kPa | 859.71 | –
328 K, 29590 kPa | 864.88 | –
328 K, 34510 kPa | 869.82 | –
328 K, 39430 kPa | 874.55 | –
328 K, 44340 kPa | 879.05 | –
328 K, 49260 kPa | 883.39 | –
328 K, 54180 kPa | 887.57 | –
328 K, 59100 kPa | 891.6 | –
328.68 K, 100 kPa | – | 941.9
328.68 K, 5090 kPa | – | 977.6
328.68 K, 10030 kPa | – | 1009.5
328.68 K, 20070 kPa | – | 1068.8
328.68 K, 30010 kPa | – | 1121.9
328.68 K, 40010 kPa | – | 1171.1
328.68 K, 50070 kPa | – | 1215.9
328.68 K, 60000 kPa | – | 1256.7
328.68 K, 70030 kPa | – | 1294.8
328.68 K, 80090 kPa | – | 1330.4
328.68 K, 90100 kPa | – | 1364
328.68 K, 100060 kPa | – | 1396.1
328.68 K, 110140 kPa | – | 1426.4
328.68 K, 120100 kPa | – | 1454.7
328.68 K, 130000 kPa | – | 1481.9
328.68 K, 140020 kPa | – | 1508.4
328.68 K, 150040 kPa | – | 1533.8
328.68 K, 160100 kPa | – | 1557.9
332.91 K, 5000 kPa | 829.26 | –
332.91 K, 9920 kPa | 836.08 | –
332.91 K, 14840 kPa | 842.42 | –
332.91 K, 19760 kPa | 848.36 | –
332.91 K, 24670 kPa | 853.96 | –
332.91 K, 29590 kPa | 859.28 | –
332.91 K, 34510 kPa | 864.37 | –
332.91 K, 39430 kPa | 869.21 | –
332.91 K, 44340 kPa | 873.86 | –
332.91 K, 49260 kPa | 878.33 | –
332.91 K, 54180 kPa | 882.64 | –
332.91 K, 59100 kPa | 886.8 | –
338.72 K, 100 kPa | – | 888.6
338.72 K, 5050 kPa | – | 927.2
338.72 K, 10020 kPa | – | 962.5
338.72 K, 20030 kPa | – | 1025.1
338.72 K, 30050 kPa | – | 1081.4
338.72 K, 40010 kPa | – | 1132.6
338.72 K, 49990 kPa | – | 1179.8
338.72 K, 60050 kPa | – | 1223.2
338.72 K, 70040 kPa | – | 1262.8
338.72 K, 79970 kPa | – | 1299.3
338.72 K, 90070 kPa | – | 1334.7
338.72 K, 100040 kPa | – | 1367.5
338.72 K, 110020 kPa | – | 1398.5
338.72 K, 119960 kPa | – | 1428.5
338.72 K, 130000 kPa | – | 1456.6
338.72 K, 140080 kPa | – | 1484.3
338.72 K, 150050 kPa | – | 1510.5
338.72 K, 159910 kPa | – | 1535.5
